Measured values from patent US7270975B2, “Methods for regulating bud-hypha transitions and cAMP levels in Candida albicans” (priority 2001, dated 2007).
Like-named read-outs stand apart in the source and are kept apart here.

Legend:
[1] = test system: C. albicans cap1/cap1 mutant strain, CAC1-1A; test: Filamentous growth in SLAD agar with exogenous cAMP or dbcAMP; type: cell-based, Candida albicans; settings: SLAD media, 10 mM, 37° C.; for colony morphology / filamentous growth of the cap1/cap1 mutant: 5 days
Protocol: (§1) To determine the effect of exogenous cAMP on bud-hypha transitions and filamenious growth of cap1/cap1 mutants, stationary phase yeasts were induced to form germ tubes and hyphae in liquid M199+serum (10^6 cells/ml) or in SLAD agar plates containing 10 mM cAMP or dbcAMP (Sigma). M199+serum containing cAMP or dbcAMP were incubated at 37° C. for 20 h and the frequency of germ tube formation was measured at various time points. SLAD plates containing cAMP or dbcAMP were incubated at 37° C. for 5 days, and filamentous growth was monitored daily.

[2] = test system: C. albicans wild type CAP1/CAP1 strain, UnoPP-1; type: cell-based, Candida albicans; settings: SLAD media, 10 mM, 37° C.
[3] = test system: C. albicans pde2/pde2 mutant (BPS4); settings: for relative growth (CFU vs YNB alone) of the pde2/pde2 mutant: 6 h; for doubling time of pde2/pde2 mutants: 30° C.; for swollen pde2/pde2 mutant cells: YNB, 6 hours
Protocol: (§2) C. albicans strains were grown in YNB at 30° C. to middle-logarithmic phase, and then an equal number of cells were subcultured into YNB or YNB containing 4 mM and 40 mM cAMP and grown for 6 to 9 hours. Every hour during incubation, optical density and cell number/ml of cultures were measured by a photoelectric colorimeter (Klett-Summerson, Klett MFG. Co., Inc, NY, N.Y.) and hemacytometer, respectively. The percent of dead cells was determined by staining with 0.1% methylene blue (Sigma, St. Louis, Mo.). Also, cell morphologies were observed by microscopy. After a 6-hour incubation of each strain with YNB containing the indicated amounts of exogenous cAMP, culture samples were serially diluted, spread on YPD plates, and incubated for 2 days to determine the number of colony forming units (CFU). The percent relative growth was calculated by using the following formula: [(CFU of a strain incubated for 6 h in YNB having an indicated concentration of cAMP)/(CFU of the strain incubated for 6 h in YNB only)]×100%.

[4] = test system: C. albicans strains with a wild type PDE2 gene (UnoPP-1, BPS1, BPS9); settings: YNB, 4 mM and 40 mM cAMP
Protocol: as §2

[5] = test system: PDE2 mRNA in C. albicans cap1/cap1 mutant; settings: cAMP 10 mM, germ tube induction conditions, data not shown
[6] = test system: C. albicans cap1/cap1 mutant strain, CAC1-1A; test: Bud-hypha transitions in liquid M199+serum with exogenous cAMP or dbcAMP; type: cell-based, Candida albicans; settings: 10 mM
Protocol: as §1

[7] = test system: C. albicans cap1/cap1 pde2/pde2 mutant (BPS18); test: Filamentation in SLAD agar with or without dbcAMP; type: cell-based, Candida albicans; settings: SLAD agar media, 10 mM dbcAMP
Protocol: Filamentous growth of each strain was induced at 37° C. for 6 days in solid Spider media (a11-15) and 2% agar media containing 4% bovine calf serum (a16-20).
For growth analysis in agar-containing media, stationary-phase yeasts were mixed (200 cells/25 ml of medium) with liquefied agar Spider medium (Liu et al., 266 SCIENCE 1723-1726 (1994)), SLAD (synthetic low ammonium dextrose)(Csank et al., 66 INFECT. IMMUN. 2713-2721 (1998)), and 2% agar containing 4% bovine calf serum (Lo et al., 90 CELL 939-949 (1997).

| Structure (SMILES) | timing of onset of filamentous growth of the cap1/cap1 mutant [1] | colony morphology / filamentous growth of the cap1/cap1 mutant [1] | filamentous growth of the wild type strain [2] | relative growth (CFU vs YNB alone) of the pde2/pde2 mutant ([3]; YNB containing 4 mM cAMP) | relative growth (CFU vs YNB alone) of the pde2/pde2 mutant ([3]; YNB containing 40 mM cAMP) [%] | doubling time of pde2/pde2 mutants ([3]; YNB with 4 mM cAMP) [h] | doubling time of pde2/pde2 mutants ([3]; YNB with 40 mM cAMP) [h] | swollen pde2/pde2 mutant cells ([3]; 4 mM cAMP) | swollen pde2/pde2 mutant cells ([3]; 40 mM cAMP) | relative growth rate of strains with a wild type PDE2 gene [4] | PDE2 mRNA expression in the cap1/cap1 mutant [5] | hypha formation of the cap1/cap1 mutant in liquid media ([6]; 37° C., 10^6 cells/ml) | pseudohyphae detected in the presence vs absence of dbcAMP ([6]; at 3 h) | filamentation of the cap1/cap1 pde2/pde2 mutant [7] |
| --- | --- | --- | --- | --- | --- | --- | --- | --- | --- | --- | --- | --- | --- | --- |
| Nc1ncnc2c1ncn2[C@@H]1O[C@@H]2COP(=O)(O)O[C@H]2[C@H]1O [cAMP, cyclic AMP] | two | dramatically altered the colony morphology | slightly enhanced | about 70% | ~40 | 3.7 | 4.8 | ~50 % of cells | greater than 90 % of cells | not affected | the same with or without exogenous cAMP |  |  |  |
| CCCC(=O)Nc1ncnc2c1ncn2[C@@H]1O[C@@H]2COP(=O)(O)O[C@H]2[C@H]1OC(=O)CCC [dbcAMP, dibutyryl cAMP] | two | dramatically altered the colony morphology | slightly enhanced |  |  |  |  |  |  |  |  | enhanced | twice as many pseudohyphae | increase filamentation of the cap1/cap1 pde2/pde2 mutant to near wild type levels |
